The text below walks through data of patent publication US8247444B2, “Anti-tumor effect of dimeric phthalide compound” (priority 2007, dated 2012).

Converted amounts (≈) assume the structure as drawn.

The subject of one assay is SMMC-7721/Adr. The assay can be described thus: Growth inhibition of sensitive and drug-resistant cell lines (IC50), SMMC-7721/Adr. It counts as cell-based. The note with it: Homo sapiens; SMMC-7721/Adr drug-resistant cells. An excerpt:
HL-60/ADR, MCF-7/ADR, K562/ADR, Bel-7402/5-FU, KBV200, SMMC-7721/Adr were respectively chemotherapeutics Adriamycin (ADR), 5-Fluorouracil (5-FU) or vincristine (VCR) drug-resistant sub-stains of HL-60, MCF-7, K562, Bel-7402, KB, SMMC-7721 cells (all from Chinese Academy of Medical Sciences). NB4-R2 was all trans-retinoic acid (ATRA) drug-resistant sub-stain (from Pathophysiology Research Department of Shanghai JiaoTong University). The main drug-resistance mechanism of K562/ADR was high expression of P-glycoprotein (P-gp), along with increased expression of Bcl-2. In addition to high expression of P-gp, the drug-resistance mechanism of MCF-7/ADR also related to the high expression of Breast Cancer Resistant Protein (BCRP). The main drug-resistance mechanism of HL-60/ADR was high expression of Multidrug Resistance Protein 1 (MRP1), along with high expression of Bcl-2, Bcl-xL. […] The main drug-resistance mechanism of KBV200 was high expression of P-gp and its increased activity. The drug-resistance mechanism of NB4-R2 on ATRA was mutation in the RAR gene locus.
(§1) The human lung cancer cell H1299 and H446, glioma cell U251 and U87MG, and human hepatic cellular cancer Bel-7402 cell in logarithmic growth phase were digested with pancreatic enzyme, and then suspended into DMEM or RPMI1640 containing 10% fetal bovine serum. The leukemic cells Kasumi-1 need no digestion, and were suspended into RPMI1640 containing 10% fetal bovine serum directly after centrifugalization. The cell density was adjusted to 1×10^4 cells/ml through cell counting, and the cell suspensions were seeded into a 96-well plate respectively, 100 μl/well, totally 6 groups of cells. The adherent cells were cultured overnight, the suspended cells were added different concentration gradients of dimeric phthalide compounds (S1-S6) directly, n=6 for each concentration of a single agent. The final volume was 200 ul, and the balance was supplemented with the culture medium. The plate was then incubated for 68 hours in 37° C., saturated humidity, 5% CO2 cell incubator. The medium was aspirated and 72 μl/well fresh culture medium was added. 8 μl […] (CCK-8) was added into each well and cultured for 2 hours. The absorbance was measured at 450 nm. The results were calculated as the 50% inhibiting drug concentration, i.e. IC50, using Sigmoidal simulation function by software Origin 7.0.
(§2) The cancer cells (various cell lines as shown in table 1 or FIG. 3) were seeded 1×10^3 cells per well into a 96-well plate. The suspended cells were added different concentration of dimeric phthalide compounds (S1-S6) directly, and the adherent cells were cultured overnight and added different concentration of dimeric phthalide compounds (S1-S6). The different concentration of dimeric phthalide compounds were divided into 10 groups: 0, 0.1, 0.5, 1, 5, 10, 20, 40, 80, 160 μg/ml, n=6 for each concentration.
(§3) According to the method described in Example 2, […] was detected and IC50 was calculated. The experiment was repeated for 3 times.
(§4) The growth inhibition effects of dimers of S1-S6 on its sensitive cell lines as well as the drug-resistant sub-strains (IC50 (μg/ml)) were shown in table 1 and FIG. 3.

The subject of the next assay is K562. The assay can be described thus: Growth inhibition of sensitive and drug-resistant cell lines (IC50), K562. The class given is cell-based. The note with it: Homo sapiens; K562 cells. The protocol: as §1, §2, §3, §4
The test system of assay [1] is U87MG, H1299 and HL-60 heterograft tumors. The assay can be described thus: Inhibition of the growth of nude mouse heterograft tumors. The class given is in vivo, Balb/c male nude mice. The note with it: intraperitoneal; S4 25 mg/kg, S6 30 mg/kg, S1 32 mg/kg, BP 250 mg/kg; 4 weeks; FIG. 9. How it is done: Experimental grouping: Balb/c male nude mice were used, each weighted 18-22 g, and three assays were performed. The mice were seeded with U87MG, H1299 and HL-60 respectively. The animals were divided into three groups for each experiment, one as control, one was administered with the dimeric phthalide compounds, and one was administered with monomers of phthalide compound, 6 animals for each group.
For the group which was administered with monomers of phthalide compound, we used n-butylidenephthalide (BP) (Sigma) as active ingredient for tumor suppression, the compound had the structure as follows:
Experimental Process The H1299, HL-60 or U87MG cells growing in logarithmic phase were used. […] When the tumors had gown into 0.1-0.5 cm^3 (about 7-10 days), the animals were intraperitoneal injected with the dimeric phthalide compound S4 (25 mg/kg), S6 (30 mg/kg), S1 (32 mg/kg), each 200 μl; for the group of monomers of phthalide compound, the mice were intraperitoneal injected with n-butylidenephthalide (250 mg/kg); the control group was administered with equal volume of vehicle. The animals were sacrificed after 4 weeks, and the subcutaneous tumors were separated. Photographs were taken (FIG. 9A) and the tumors were weighted (FIG. 9B).

The test system of assay [2] is secretion of VEGF in H1299 cell. In words: VEGF in supernatant of tumor cell H1299 culture (VEGF-ELISA). The class given is cell-based, human. The following applies: H1299, compound 5 μg/ml, 24 h. How it is done:
Assay of vascular endothelial cell growth factor (VEGF) in supernatant of tumor cell H1299 culture. The cell was seeded into a 24-well plate (n=3 for each sample). H1299 cell was treated with S1-S6 respectively and cultured for 24 h. The culture supernatants from each group were collected and operated according to the instruction of VEGF-ELISA kit (JIN MEI Corporation). The samples were added, incubated, washed and detected at 450 nm for OD values of each sample. The standard curve was obtained by using different dose of VEGF standards and the secretory volume of VEGF in the supernatant was calculated.

The subject of assay [3] is KB. The assay can be described thus: Growth inhibition of sensitive and drug-resistant cell lines (IC50), KB. The note with it: Homo sapiens; KB cells, Table 1. The class given is cell-based. How it is done:
(§5) In the following Examples, the cell lines used were H1299, H446 (human lung cancer cell line), KB (human oral cavity carcinoma cell line), NB4, HL-60 (human leukemic cell line), U251 ? U87MG (human glioblastoma cell line), MCF-7 (human breast carcinoma cell line), Bel-7402 and SMMC7721 (human hepatic cellular cancer cell line), SW620 (human colon carcinoma cell line), HDF (human dermis fibroblast), HUVEC (human umbilical vein endothelial cell line) and Kasumi-1 (human acute myeloid leukaemia cell line), all from American Type Culture Collection (ATCC).
as §1, §2, §3, §4

Assay [4] has as its system KB. The assay can be described thus: Vascular endothelial cell inhibition assay (CCK-8), KB. The note with it: Homo sapiens, 72 h, CCK-8, Table 2. The class given is cell-based. The protocol:
(§6) 2×10^3 cells were seeded into a 96-well plate and cultured for 24 h. S1-S6 of different concentrations (0, 0.01, 0.1, 0.5, 1, 2.5, 5, 10, 20, 40, 80, 160 μg/ml, respectively) were added and incubated for 72 h, n=6 for each concentration. The inhibition of cell proliferation was detected by CCK-8 assay, the results were calculated as IC50, as describe in Example 3.

The subject of a further assay is SMMC-7721. In words: Growth inhibition of sensitive and drug-resistant cell lines (IC50), SMMC-7721. It counts as cell-based. The note with it: Homo sapiens; SMMC-7721 cells. How it is done: as §5, §1, §2, §3, §4
The subject of another assay is Bel-7402. In words: Vascular endothelial cell inhibition assay (CCK-8), Bel-7402. The following applies: Homo sapiens, 72 h, CCK-8, Table 2. It counts as cell-based. How it is done: as §6

For the compound `CCC/C=C1\OC(=O)C2=C1CCC1C2[C@@]23CC[C@@H]1C=C2C(=O)O/C3=C\CCC` (stereo partly drawn) [S4], the IC50 in the assay on SMMC-7721/Adr was found to be 22.7 ± 2.55 mg/L (≈ 59.6 µM); in the assay on K562 it was 11.5 ± 0.831 mg/L (≈ 30.3 µM); in the assay on KB [3], 15.5 ± 3.22 mg/L (≈ 40.8 µM); with KB [4], 21.4 mg/L (≈ 56.2 µM); in the assay on SMMC-7721 it was 19.4 ± 3.12 mg/L (≈ 51 µM); in the assay on Bel-7402, 30.4 mg/L (≈ 79.9 µM). For the same compound, in assay [1], the tumor inhibition effect result is recorded as “significant tumor inhibition effects”. Moreover, the “Supernatant VEGF” value in assay [2] stood at 234.00 ± 34.03 ng/ml/10^6 cells. For the same compound, in assay [2] (Homo sapiens, NCI-H1299, read-out: Inhibition rate of VEGF secretion), the inhibition at 5 µg/mL was 37.3%.
